This note sets out measurements from patent US20240270741A1 (Cogent Biosciences, Inc., priority 2023, published 2024).

The term IC50 denotes the point on the concentration scale where inhibition reaches its midpoint. A lower IC50 goes with greater potency.

Each structure is given as a SMILES string. Structures can show the parent of a compound that is named as a salt.

FGFR2, sequence (P21802 399-821 limits assumed): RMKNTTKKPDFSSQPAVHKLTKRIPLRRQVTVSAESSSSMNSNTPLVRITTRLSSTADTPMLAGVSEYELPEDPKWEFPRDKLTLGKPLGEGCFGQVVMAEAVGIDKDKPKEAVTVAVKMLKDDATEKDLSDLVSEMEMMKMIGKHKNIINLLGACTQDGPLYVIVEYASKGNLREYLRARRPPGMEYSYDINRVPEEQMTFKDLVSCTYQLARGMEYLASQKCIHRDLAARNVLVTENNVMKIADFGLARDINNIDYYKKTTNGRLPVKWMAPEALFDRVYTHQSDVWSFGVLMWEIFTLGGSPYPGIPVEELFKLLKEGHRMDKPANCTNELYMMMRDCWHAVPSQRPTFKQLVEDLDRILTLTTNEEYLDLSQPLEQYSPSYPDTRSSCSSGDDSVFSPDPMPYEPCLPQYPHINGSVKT

One experiment concerns the target FGFR2 (Homo sapiens, UniProt P21802). The experiment can be described thus: FGFR wild type enzyme assay (HTRF KinEASE-TK), FGFR2. The settings on record: Enz FGFR2 (nM). Background: TR-FRET usually uses a lanthanide donor and a delayed reading to cut background.
`CC(C)OC[C@@H](C)Sc1cc(-c2cnn([C@H]3CCCNC3)c2)cn2ncc(C#N)c12` [Example 79, 4-[(1R)-2-isopropoxy-1-methyl-ethyl]sulfanyl-6-[1-[(3S)-3-piperidyl]pyrazol-4-yl]pyrazolo[1,5-a]pyridine-3-carbonitrile] yielded an IC50 of 2 nM.

Molecule `N#Cc1cccc(Sc2cc(-c3cnn([C@H]4CCCNC4)c3)cn3ncc(C#N)c23)n1` [Example 77, 4-[(6-cyano-2-pyridyl)sulfanyl]-6-[1-[(3S)-3-piperidyl]pyrazol-4-yl]pyrazolo[1,5-a]pyridine-3-carbonitrile] gave an IC50 of 99 nM. Against the preceding molecule, the IC50 is about 50-fold higher.

`N#Cc1cnn2cc(-c3ccc(OCCN4CCOCC4)nc3)cc(Sc3ccccn3)c12` [Example 96, 6-[6-(2-morpholinoethoxy)-3-pyridyl]-4-(2-pyridylsulfanyl) pyrazolo[1,5-a]pyridine-3-carbonitrile] came in with an IC50 of 82 nM. This IC50 and that of the molecule before are within 1.5-fold of each other.

Take `CSc1cc(-c2cnn([C@H]3CCCNC3)c2)cn2ncc(C#N)c12` [Example 50, 4-methylsulfanyl-6-[1-[(3S)-3-piperidyl]pyrazol-4-yl] pyrazolo[1,5-a]pyridine-3-carbonitrile]: half-maximal inhibition (IC50) was put at 2 nM.

Molecule `N#Cc1cnn2cc(-c3cnn([C@H]4CCNC4)c3)cc(Sc3ccccn3)c12` [Example 73, (S)-4-(pyridin-2-ylthio)-6-(1-(pyrrolidin-3-yl)-1H-pyrazol-4-yl)pyrazolo[1,5-a]pyridine-3-carbonitrile, HCl] returned a 50% inhibitory concentration (IC50) of 4 nM.

Still in this experiment, the particulars now being: Enz FGFR2 (nM), FGFR2 wild type enzyme.
In turn, `Cc1c(-c2cc(Sc3ccccc3C#N)c3c(C#N)cnn3c2)cnn1[C@H]1CC[C@@H](NCC2(C)CC2)CC1` [Example 257, 4-((2-cyanophenyl)thio)-6-(5-methyl-1-((1s,4s)-4-(((1-methylcyclopropyl)methyl)amino)cyclohexyl)-1H-pyrazol-4-yl)pyrazolo[1,5-a]pyridine-3-carbonitrile] yielded an IC50 of 0.5 nM. In other words, the sub-nanomolar range.

The molecule `CC(=O)N1CCC[C@H](n2ncc(-c3cc(Sc4ccc(F)cn4)c4c(C#N)cnn4c3)c2C)C1` [Example 308, (S)-6-(1-(1-acetylpiperidin-3-yl)-5-methyl-1H-pyrazol-4-yl)-4-((5-fluoropyridin-2-yl)thio)pyrazolo[1,5-a]pyridine-3-carbonitrile] displayed an IC50 of 7 nM.

Molecule `Cc1c(-c2cc(Sc3ccccc3C#N)c3c(C#N)cnn3c2)cnn1[C@H]1CC[C@H](O)CC1` [Example 189, 4-((2-cyanophenyl)thio)-6-(1-((1r,4r)-4-hydroxycyclohexyl)-5-methyl-1H-pyrazol-4-yl)pyrazolo[1,5-a]pyridine-3-carbonitrile] returned a concentration for half-maximal inhibition (IC50) of 0.7 nM.

In turn, `CN(C)[C@H]1CC[C@@H](n2cc(-c3cc(Sc4ncccc4F)c4c(C#N)cnn4c3)cn2)CC1` [Example 247, 6-(1-((1s,4s)-4-(dimethylamino)cyclohex-yl)-1H-pyrazol-4-yl)-4-((3-fluoropyridin-2-yl)thio)pyrazolo[1,5-a]pyridine-3-carbonitrile] came in with an IC50 of 1 nM. This IC50 and that of the molecule before are within 1.5-fold of each other.

`Cc1c(-c2cc(Sc3ncccc3F)c3c(C#N)cnn3c2)cnn1[C@H]1CC[C@@H](NCc2ccccn2)CC1` [Example 270, 4-((3-fluoropyridin-2-yl)thio)-6-(5-methyl-1-((1s,4s)-4-((pyridin-2-ylmethyl)amino)cyclohex-yl)-1H-pyrazol-4-yl)pyrazolo[1,5-a]pyridine-3-carbonitrile]: the IC50 was determined as 0.7 nM.

In the case of `Cc1c(-c2cc(Sc3ccc(F)cc3C#N)c3c(C#N)cnn3c2)cnn1[C@H]1CC[C@@H](O)CC1` [Example 288, 4-((2-cyano-4-fluorophenyl)thio)-6-(1-((1s,4s)-4-hydroxycyclohexyl)-5-methyl-1H-pyrazol-4-yl)pyrazolo[1,5-a]pyridine-3-carbonitrile], the IC50 worked out at 1 nM.

`Cc1c(-c2cc(Sc3ncccc3F)c3c(C#N)cnn3c2)cnn1C[C@@H](C)N(C)C` [Example 181, (R)-6-(1-(2-(dimethylamino)propyl)-5-methyl-1H-pyrazol-4-yl)-4-((3-fluoropyridin-2-yl)thio)pyrazolo[1,5-a]pyridine-3-carbonitrile] gave a half-inhibitory concentration (IC50) of 7 nM.

Turning to `CC(=O)N1CCC[C@H](n2ncc(-c3cc(Sc4ncc(F)cc4F)c4c(C#N)cnn4c3)c2C)C1` [Example 190, (S)-6-(1-(1-acetylpiperidin-3-yl)-5-methyl-1H-pyrazol-4-yl)-4-((3,5-difluoropyridin-2-yl)thio)pyrazolo[1,5-a]pyridine-3-carbonitrile], the concentration for half-maximal inhibition (IC50) was 3 nM.

Molecule `CCN[C@H]1CC[C@@H](n2ncc(-c3cc(Sc4ccccc4C#N)c4c(C#N)cnn4c3)c2C)CC1` [Example 250, 4-((2-cyanophenyl)thio)-6-(1-((1s,4s)-4-(ethylamino)cylcohexyl)-5-methyl-1H-pyrazol-4-yl)pyrazolo[1,5-a]pyridine-3-carbonitrile] gave an IC50 of 0.4 nM. Against the preceding molecule, the IC50 is about 7.5-fold lower.

The same experiment, now with this note: Enz FGFR2 (nM), FGFR2 wild type enzyme assay.
Regarding `CC(=O)N1[C@@H]2CC[C@H]1C[C@H](n1cc(-c3cc(Sc4ccccc4C#N)c4c(C#N)cnn4c3)c(C)n1)C2` [Example 409, 6-(1-((1R,3s,5S)-8-acetyl-8-azabicyclo[3.2.1]octan-3-yl)-3-methyl-1H-pyrazol-4-yl)-4-((2-cyanophenyl)thio)pyrazolo [1,5-a]pyridine-3-carbonitrile], the half-maximal inhibitory concentration (IC50) stood at 5 nM.

Regarding `N#Cc1ccccc1Sc1cc(-c2cnn([C@@H]3CCC(=O)NC3)c2)cn2ncc(C#N)c12` [Example 622, (R)-4-((2-cyanophenyl)thio)-6-(1-(6-oxopiperidin-3-yl)-1H-pyrazol-4-yl)pyrazolo[1,5-a]pyridine-3-carbonitrile], the half-maximal inhibitory concentration (IC50) is 0.5 nM. Against the preceding molecule, the IC50 is about 10-fold lower.

In turn, `N#Cc1nn([C@H]2CCCNC2)cc1-c1cc(Sc2ncccc2F)c2c(C#N)cnn2c1` [Example 507, (S)-6-(3-cyano-1-(piperidin-3-yl)-1H-pyrazol-4-yl)-4-((3-fluoropyridin-2-y)thio)pyrazolo[1,5-a]pyridine-3-carbonitrile] came in with an IC50 of 30 nM.

Take `Cc1c(-c2cc(Sc3ccc(F)cc3C#N)c3c(C#N)cnn3c2)cnn1[C@H]1CC[C@H](OC(=O)[C@H](N)C(C)C)CC1` [Example 635, (1r,4R)-4-(4-(3-cyano-4-((2-cyano-4-fluorophenyl)thio)pyrazolo [1,5-a]pyridin-6-yl)-5-methyl-1H-pyrazol-1-yl)cyclohexyl D-valinate]: the midpoint of inhibition, the IC50, lay at 1 nM.

The molecule `CN1CCN(c2ccc(-c3cc(Sc4ccccc4C#N)c4c(C#N)cnn4c3)cn2)CC1` [Example 527, 4-((2-cyanophenyl)thio)-6-(6-(4-methylpiperazin-1-yl)pyridin-3-yl)pyrazolo[1,5-a]pyridine-3-carbonitrile] had an IC50 of 0.4 nM. This IC50 lies about 2.5-fold lower than the previous one.

Turning to `N#Cc1cnn2cc(-c3cnn([C@H]4CCN(C5CC(O)C5)C4)c3)cc(Sc3ncccc3F)c12` (stereo partly drawn) [Example 476, (S)-4-((3-fluoropyridin-2-yl)thio)-6-(1-(1-(3-hydroxycyclobutyl)pyrroli-din-3-yl)-1H-pyrazol-4-yl)pyrazolo[1,5-a]pyridine-3-carbonitrile], the 50% inhibitory concentration (IC50) is 1 nM.

For the molecule `CN1CCN(c2ccc(-c3cc(Sc4ccc(F)cc4C#N)c4c(C#N)cnn4c3)cn2)CC1` [Example 560, 4-((2-cyano-4-fluorophenyl)thio)-6-(6-(4-methylpiperazin-1-yl)pyridin-3-yl)pyrazolo[1,5-a]pyridine-3-carbonitrile], the IC50 came to 1 nM.

In turn, `N#Cc1cc(F)ccc1Sc1cc(-c2cnn([C@H]3CCCNC3)c2)cn2ncc(C#N)c12` [Example 435, (S)-4-((2-cyano-4-fluorophenyl)thio)-6-(1-(piperidin-3-yl)-1H-pyrazol-4-yl)pyrazolo[1,5-a]pyridine-3-carbonitrile] displayed a 50% inhibitory concentration (IC50) of 1 nM.

Molecule `N#Cc1ccccc1Sc1cc(-c2cnn(CCO)c2)cn2ncc(C#N)c12` [Example 566, 4-((2-cyanophenyl)thio)-6-(1-(2-hydroxyethyl)-1H-pyrazol-4-yl)pyrazolo[1,5-a]pyridine-3-carbonitrile] displayed a 50% inhibitory concentration (IC50) of 2 nM.

`Cc1c(-c2cc(Sc3ncccc3F)c3c(C#N)cnn3c2)cnn1C1CCN(C#N)CC1` [Example 557] had a half-maximal inhibitory concentration (IC50) of 2 nM.

As to `Cc1nn([C@H]2CCCN(C(=O)CO)C2)cc1-c1cc(Sc2ccc(F)cc2C#N)c2c(C#N)cnn2c1` [Example 426, (S)-4-((2-cyano-4-fluorophenyl)thio)-6-(1-(1-(2-hydroxyacetyl)piperidin-3-yl)-3-methyl-1H-pyrazol-4-yl)pyrazolo[1,5-a]pyridine-3-carbonitrile], the half-maximal inhibitory concentration (IC50) is 4 nM.

`N#Cc1ccccc1Sc1cc(-c2cnn([C@@H]3CCCC[C@H]3O)c2)cn2ncc(C#N)c12` [Example 519, 4-((2-cyanophenyl)thio)-6-(1-((1R,2R)-2-hydroxycyclohexyl)-1H-pyrazol-4-yl)pyrazolo[1,5-a]pyridine-3-carbonitirle] came in with a half-inhibitory concentration (IC50) of 1 nM.

In turn, `CC(C)(CO)n1cc(-c2cc(Sc3ccccc3C#N)c3c(C#N)cnn3c2)cn1` [Example 578, 4-((2-cyanophenyl)thio)-6-(1-(1-hydroxy-2-methylpropan-2-yl)-1H-pyrazol-4-yl)pyrazolo[1,5-a]pyridine-3-carbonitrile] showed a 50% inhibitory concentration (IC50) of 2 nM.

In turn, `CC1(C)C[C@@H](n2cc(-c3cc(Sc4ccccc4C#N)c4c(C#N)cnn4c3)cn2)CN1` [Example 474, (R)-4-((2-cyanophenyl)thio)-6-(1-(5,5-dimethylpyrrolidin-3-yl)-1H-pyrazol-4-yl)pyrazolo[1,5-a]pyridine-3-carbonitrile] registered a half-inhibitory concentration (IC50) of 0.2 nM. Compared with the last molecule, the IC50 is about 10-fold lower.

With `CC(=O)N[C@H]1CC[C@H](n2cc(-c3cc(Sc4ccccc4C#N)c4c(C#N)cnn4c3)cn2)CC1` [Example 574, N-((1r,4r)-4-(4-(3-cyano-4-((2-cyanophenyl)thio)pyrazolo [1,5-a]pyridin-6-yl)-1H-pyrazol-1-yl)cyclohexyl)acetamide], the IC50 was determined as 1 nM.

`CN1C[C@@H](n2cc(-c3cc(Sc4ccccc4C#N)c4c(C#N)cnn4c3)cn2)CCC1=O` [Example 647, (S)-4-((2-cyanophenyl)thio)-6-(1-(1-methyl-6-oxopiperidin-3-yl)-1H-pyrazol-4-yl)pyrazolo[1,5-a]pyridine-3-carbonitrile] had an IC50 of 1 nM.

With `N#Cc1ccccc1Sc1cc(-c2cnn([C@@H]3CCNC3)c2)cn2ncc(C#N)c12` [Example 581, (R)-4-((2-cyanophenyl)thio)-6-(1-(pyrrolidin-3-yl)-1H-pyrazol-4-yl)pyrazolo[1,5-a]pyridine-3-carbonitrile], the concentration for half-maximal inhibition (IC50) came out at 0.5 nM.
